Experiments:
Human keratinocytes = experiment: in vitro scratch assay (cell migration); type: cell-based; details: for increased keratinocyte migration observed with LLEC, under N-acetyl cysteine: 5 mM, pretreated 1 h before scratch assay
Source text: The in vitro scratch assay is an easy, low-cost and well-developed method to measure cell migration in vitro. The basic steps involve creating a “scratch” in a cell monolayer, capturing images at the beginning and at regular intervals during cell migration to close the scratch, and comparing the images to quantify the migration rate of the cells. Compared to other methods, the in vitro scratch assay is particularly suitable for studies on the effects of cell-matrix and cell-cell interactions on cell migration, mimic cell migration during wound healing in vivo and are compatible with imaging of live cells during migration to monitor intracellular events if desired. In addition to monitoring migration of homogenous cell populations, this method has also been adopted to measure migration of individual cells in the leading edge of the scratch. Not taking into account the time for transfection of cells, in vitro scratch assay per se usually takes from several hours to overnight.
Human keratinocytes were plated under plated under placebo or a LLEC system (labeled “PROCELLERA®”). Cells were also plated under silver-only or zinc-only dressings. After 24 hours, the scratch assay was performed.
Measurement of the potential difference between adjacent zinc and silver dots when the LLEC is in contact with de-ionized water yielded a value of about 0.2 Volts. Though the potential difference between zinc and silver dots can be measured, non-intrusive measurement of the electric field arising from contact between the LLEC and liquid medium was difficult. Keratinocyte migration was accelerated by exposure to an Ag/Zn LLEC.
Scratch assay—A cell migration assay was performed using culture inserts (IBIDI®, Verona, Wis.) according to the manufacturers instructions. Cell migration was measured using time-lapse phase-contrast microscopy following withdrawal of the insert. Images were analyzed using the AxioVision Rel 4.8 software.
N-Acetyl Cysteine Treatment—Cells were pretreated with 5 mM of the thiol antioxidant N-acetylcysteine (Sigma) for 1 h before start of the scratch assay. […]

HUVEC cells [1] = experiment: EF-induced elongation of endothelial cells (long:short axis ratio); type: cell-based, human; details: drug 50 μM
Protocol: HUVEC cells were seeded in a trough formed by two parallel (1 cm apart) strips of glass coverslip (No. 1, length of 22 mm) fixed to the base of the dish with silicone grease. Scratch lines were made perpendicular to the long axis of the chamber with a fine sterile needle and used as reference marks for directed cell migration. Cells were incubated for 24-48 hours (37° C., 5% CO2) before a roof coverslip was applied and sealed with silicone grease. The final dimensions of the chamber, through which current was passed, were 22×10×0.2 mm. […] Field strengths were measured directly at the beginning of, the end of and during each experiment. […]
A series of images was taken with an image analyser immediately before EF exposure and at 4, 8 and 24 hours of EF exposure. Cell orientation was quantified as an orientation index (Oi), which is defined as Oi=cos 2(α), where α is the angle formed by the long axis of a cell with a line drawn perpendicular to the field lines. […] The significance of this two-dimensional orientation distribution against randomness was calculated using Rayleigh's distribution. A long:short axis ratio was calculated for assessment of elongation.
HUVEC cells elongated dramatically in an EF. […] We quantified the elongation of the cells using a long:short axis ratio. […]

HUVEC cells [2] = experiment: EF-induced reorientation of endothelial cells (orientation index Oi); type: cell-based, human; details: for orientation response / reorientation of cells in an EF: drug 50 μM, 1 hour before and during EF exposure
Protocol: HUVEC cells were seeded in a trough formed by two parallel (1 cm apart) strips of glass coverslip (No. 1, length of 22 mm) fixed to the base of the dish with silicone grease. Scratch lines were made perpendicular to the long axis of the chamber with a fine sterile needle and used as reference marks for directed cell migration. Cells were incubated for 24-48 hours (37° C., 5% CO2) before a roof coverslip was applied and sealed with silicone grease. The final dimensions of the chamber, through which current was passed, were 22×10×0.2 mm. Agar-salt bridges not less than 15 cm long were used to connect silver/silver-chloride electrodes in beakers of Steinberg's solution (58 mM NaCl, 0.67 mM KCl, 0.44 mM Ca(NO3)2, 1.3 mM MgSO4, 4.6 mM Trizma base, pH 7.8-8.0), to pools of excess culture medium at either side of the chamber. Field strengths were measured directly at the beginning of, the end of and during each experiment. No fluctuations in field strength were observed. […] (50 μM), the Rho kinase inhibitor Y27632 (50 μM), both Akt and Rho kinase inhibitors (10 μM each) or latrunculin (50 nM) for 1 hour before EF stimulation. The same concentration of drug was present during EF exposure in a CO2 incubator.
A series of images was taken with an image analyser immediately before EF exposure and at 4, 8 and 24 hours of EF exposure. Cell orientation was quantified as an orientation index (Oi), which is defined as Oi=cos 2(α), where α is the angle formed by the long axis of a cell with a line drawn perpendicular to the field lines. A cell with its long axis parallel to the vector of the EF will have an Oi of −1, and a cell with its long axis exactly perpendicular to the EF vector will have an Oi of +1. […] The significance of this two-dimensional orientation distribution against randomness was calculated using Rayleigh's distribution. A long:short axis ratio was calculated for assessment of elongation.
Cell alignment was quantified using an orientation index Oi=cos 2(α), where α is the angle formed between the long axis of a cell and a line drawn perpendicular to the field lines. […]

Compound	long:short axis ratio in EF-treated cells (HUVEC cells [1])	orientation response / reorientation of cells in an EF (HUVEC cells [2])	further results
CC(=O)N[C@@H](CS)C(=O)O [N-Acetyl Cysteine, N-acetylcysteine]			increased keratinocyte migration observed with LLEC, under N-acetyl cysteine (Human keratinocytes): failed to reproduce the increased migration; increased keratinocyte migration observed with LLEC, under N-acetyl cysteine (Human keratinocytes; listed as N-acetyl cysteine): prevented
C[C@@H](N)[C@H]1CC[C@H](C(=O)Nc2ccncc2)CC1 [Y27632]	significantly decreased		
1-L-6-hydroxymethyl-chiro-inositol 2-[(R)-2-O-methyl-3-O-octadecylcarbonate] [Akt inhibitor]	significantly decreased	significantly decreased	
N#CC(=C(/N)Sc1ccccc1N)/C(C#N)=C(\N)Sc1ccccc1N [U0126]			Oi (HUVEC cells [2]): 0.33±0.03
COc1cc2ncnc(Nc3ccc(Cl)cc3F)c2cc1OC [VEGFR inhibitor, 4-[(4′-chloro-2′-fluoro)phenylamino]-6,7-dimethoxyquinazoline]		completely abolished	
COc1cc([C@@H]2c3cc4c(cc3[C@H](O)[C@H]3COC(=O)[C@@H]23)OCO4)cc(OC)c1OC [IGF-1R inhibitor, picropodophyllin]			increased keratinocyte migration observed with LLEC, under IGF-1R inhibitor (Human keratinocytes; 50 nM picropodophyllin just prior to scratch assay): attenuated the increased keratinocyte migration

From patent US10307587B2, “Methods and devices for treating the skin” (VOMARIS INNOVATIONS, INC., priority 2014, dated 2019)
